{"source": "patent US10875861B1", "about": "“Therapeutic compounds” (Rutgers, The State University of New Jersey, priority 2017, dated 2020)", "system": "glioblastoma cancer cell line", "assay": "MTT viability assay with glioblastoma cancer cell line (Test A)", "format": "cell-based, human", "conditions": "Homo sapiens, 72 hours", "excerpt": "To generate primary patient-derived GBM models for testing small molecule inhibitors, fresh primary tissues were received from patients undergoing surgical resection of WHO grade IV gliomas at Robert Wood Johnson University Hospital (RWJUH) under an approved IRB protocol. De-identified primary human GBM samples were delivered to the laboratory. Cells were obtained through mechanical dissociation of the tumor tissue using a blade and plated in DMEM/F12 medium (Gibco) in the presence of B-27 Supplement (Gibco, #17504-044), 20 ng/ml of human recombinant EGF (Gibco, #PHG0311L) and human recombinant FGF (Peprotech, #AF-100-18B). The following day, the culture was collected, incubated with Accutase (Gibco, #A11105-01) at 37° C. and passed through a 26G×⅜ needle (BD Precision Glide, #305110) to obtain a single cell suspension and re-plated in the same supplemented medium. Cells were cultured at low (5-6) passages in serum-free sphere 3D culture with mitogens that preserve the clonogenic stemness phenotype. […] different primary GBM cells (GBM #46, GBM #50, and GBM #76) were tested for cell viability after treatment with the inhibitors. Cell viability was measured using MTT assay. Briefly, one thousand cells per well were seeded in 96-well plates and exposed to drug in a total of 200 uL media. After 72 hours, 50 uL of stock concentration of 2.5 mg/mL 3-(4,5-dimethylthiazol-2-yl)-2,5-diphenyltetrazolium bromide (MTT) (Sigma, #M2128) dissolved in PBS was added to wells and incubated at 37° C. for 4 hours; read in a […] plate reader at 570 nm and compared to DMSO and untreated cells. The IC50 (defined as the concentration at which 50% of the cells were viable) was determined from the curve.\nAccordingly, compounds of the invention may be useful as therapeutic agents for the treatment of cancer.\nTo generate primary patient-derived GBM models for testing small molecule inhibitors, fresh primary tissues were received from patients undergoing surgical resection of WHO grade IV gliomas at Robert Wood Johnson University Hospital (RWJUH) under an approved RB protocol. De-identified primary human GBM samples were delivered to the laboratory. Cells were obtained through mechanical dissociation of the tumor tissue using a blade and plated in DMEM/F12 medium (Gibco) in the presence of B-27 Supplement (Gibco, #17504-044), 20 ng/ml of human recombinant EGF (Gibco, #PHG0311L) and human recombinant FGF (Peprotech, #AF-100-18B). […] Cell viability was measured using MTT assay. […] After 72 hours, 50 uL of stock concentration of 2.5 mg/mL 3-(4,5-dimethylthiazol-2-yl)-2,5-diphenyltetrazolium bromide (MTT) (Sigma, #M2128) dissolved in PBS was added to wells and incubated at 37° C. for 4 hours; read in a […] plate reader at 570 nm and compared to DMSO and untreated cells. […]"}
{"smiles": "COc1ccc(Nc2nc(-c3nc4ncccn4c3C)cs2)cc1", "note": "[Example B1, N-(4-methoxyphenyl)-4-(3-methylimidazo[1,2-a]pyrimidin-2-yl)thiazol-2-amine]", "values": [{"measurement": "EC50", "result": 5, "unit": "µM"}]}
